A word on the Ki: it is a measure of affinity in units of concentration, obtained from inhibition or displacement. A low value points to higher affinity.

SMILES strings stand for the structures.

The results in this text go back to US20240383872A1, “NOVEL PYRIDINE AND PYRAZINE COMPOUNDS AS INHIBITORS OF CANNABINOID RECEPTOR 2” (HOFFMANN-LA ROCHE INC., priority 2018, published 2024).

For this assay, the target named is human CB2 receptor (CNR2) (Homo sapiens (Human), UniProt P34972). As to the kind of experiment: Radioligand binding assay, human CB2. As to conditions: HEK cell membranes expressing human CNR2, [3H]-CP-55,940 radioligand. The procedure: The affinity of the compounds of the invention for cannabinoid CB1 receptors was determined using recommended amounts of membrane preparations (PerkinElmer) of human embryonic kidney (HEK) cells expressing the human CNRI or CNR2 receptors in conjunction with 1.5 or 2.6 nM [3H]-CP-55,940 (Perkin Elmer) as radioligand, respectively. Binding was performed in binding buffer (50 mM Tris, 5 mM MgCl2, 2.5 mM EDTA, and 0.5% (wt/vol) fatty acid free BSA, pH 7.4 for CB1 receptor and 50 mM Tris, 5 mM MgCl2, 2.5 mM EGTA, and 0.1% (wt/vol) fatty acid free BSA, pH 7.4 for CB2 receptor) in a total volume of 0.2 ml for 1 h at 30° C. shaking. The reaction was terminated by rapid filtration through microfiltration plates coated with 0.5% polyethylenimine (UniFilter GF/B filter plate; Packard). Bound radioactivity was analyzed for Ki using nonlinear regression analysis (Activity Base, ID Business Solution, Limited), with the Kd values for [3H]CP55,940 determined from saturation experiments. The compounds of formula (I) show an excellent affinity for the CB2 receptor.
Chain of human CB2 receptor (CNR2) (P34972 whole entry): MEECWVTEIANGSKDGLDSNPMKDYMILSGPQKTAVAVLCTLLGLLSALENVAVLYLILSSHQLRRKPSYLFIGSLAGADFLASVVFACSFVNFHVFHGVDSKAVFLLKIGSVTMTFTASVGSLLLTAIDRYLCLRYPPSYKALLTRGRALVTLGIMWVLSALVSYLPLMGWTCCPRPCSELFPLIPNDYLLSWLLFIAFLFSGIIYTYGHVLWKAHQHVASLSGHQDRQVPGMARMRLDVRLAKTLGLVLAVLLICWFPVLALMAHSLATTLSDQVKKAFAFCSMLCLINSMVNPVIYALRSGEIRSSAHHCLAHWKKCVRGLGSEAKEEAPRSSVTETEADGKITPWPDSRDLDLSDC
The compounds according to formula (I) have an activity in the above assay (Ki) between 0.5 nM and 10 μM. Particular compounds of formula (I) have an activity in the above assay (Ki) between 0.5 nM and 3 μM. Other particular compounds of formula (I) have an activity in the above assay (Ki) between 0.5 nM and 100 nM.
As to `COC1CN(c2ccc(C(=O)N[C@@H](C)COCCF)nc2OCC2CC2)C1` [Example 32, 6-(Cyclopropylmethoxy)-N-[(2S)-1-(2-fluoroethoxy)propan-2-yl]-5-(3-methoxyazetidin-1-yl)pyridine-2-carboxamide], the affinity corresponds to a Ki of 3.12 µM.
Then `COC1CN(c2ccc(C(=O)N[C@@H](C)COCCCF)nc2OCC2CC2)C1` [Example 33, 6-(Cyclopropylmethoxy)-N-[(2S)-1-(3-fluoropropoxy)propan-2-yl]-5-(3-methoxyazetidin-1-yl)pyridine-2-carboxamide], with 2.81 µM.
Then `CCC(CC)(COCF)NC(=O)c1ccc(N2CC(OC)C2)c(OCC2CC2)n1` [Example 34, 6-(Cyclopropylmethoxy)-N-{3-[(fluoromethoxy)methyl]pentan-3-yl}-5-(3-methoxyazetidin-1-yl) pyridine-2-carboxamide], with 0.033 µM; and `CCC(CC)(COCCF)NC(=O)c1ccc(N2CC(OC)C2)c(OCC2CC2)n1` [Example 35, 6-(Cyclopropylmethoxy)-N-{3-[(2-fluoroethoxy)methyl]pentan-3-yl}-5-(3-methoxyazetidin-1-yl) pyridine-2-carboxamide], with 0.062 µM.
Compound `CCC(CC)(COCCCF)NC(=O)c1ccc(N2CC(OC)C2)c(OCC2CC2)n1` [Example 36, 6-(Cyclopropylmethoxy)-N-{3-[(3-fluoropropoxy)methyl]pentan-3-yl}-5-(3-methoxyazetidin-1-yl)pyridine-2-carboxamide] showed a Ki of 0.068 µM.
Then `CC(C)C[C@H](COCCF)NC(=O)c1ccc(N2CCCC2)c(OCC2CC2)n1` [Example 37, 6-(Cyclopropylmethoxy)-N-[(2R)-1-(2-fluoroethoxy)-4-methylpentan-2-yl]-5-(pyrrolidin-1-yl)pyridine-2-carboxamide], with 0.288 µM; and `COC1CN(c2ccc(C(=O)N[C@@H](COCCF)CC(C)C)nc2OCC2CC2)C1` [Example 38, 6-(Cyclopropylmethoxy)-N-[(2R)-1-(2-fluoroethoxy)-4-methylpentan-2-yl]-5-(3-methoxyazetidin-1-yl) pyridine-2-carboxamide], with 1.3 µM.
In turn, `CCC(CC)(NC(=O)c1ccc(N2CC(C)(F)C2)c(OCC2CC2)n1)C(=O)NCCCF` [Example 39, 6-(Cyclopropylmethoxy)-5-(3-fluoro-3-methylazetidin-1-yl)-N-(3-(3-fluoropropylcarbamoyl)pentan-3-yl) picolinamide] gave a Ki of 0.524 µM.
